Like-named read-outs stand apart in the source and are kept apart here.
Tests used:
[1] = system: HCT116 colorectal carcinoma cells; assay: MTT cytotoxicity assay, HCT116; assay type: cell-based, human; details: read-out: IC50 ± SD, HCT116
Method: (§1) To characterize the antitumor potential of the resulting Pd(II) pincer complexes, their cytotoxicities against a panel of human solid and hematopoietic cancer cell lines, including colorectal carcinoma (HCT116), breast cancer (MCF7), prostate adenocarcinoma (PC3), glioblastoma (U251), ovarian adenocarcinoma (Scov3), chronic myelogenous leukemia (K562) and its resistant subclone (K562/iS9), multiple plasmacytoma (AMO1), and acute lymphoblastic leukemia (H9) cell lineages, were evaluated using the conventional MTT assay. […] For comparison, the inhibitory effects of the compounds explored on noncancerous human embryonic kidney cells HEK293 as well as transformed breast cells HBL100 and their doxorubicin-resistant analogs HBL100/Dox were also investigated under the same conditions.
(§2) The cytotoxic activity of the compounds explored was investigated on human colorectal carcinoma (HCT116), breast cancer (MCF7), prostate adenocarcinoma (PC3), glioblastoma (U251), ovarian adenocarcinoma (Scov3), chronic myelogenous leukemia (K562 and K562/iS9), multiple plasmacytoma (AMO1), and acute lymphoblastic leukemia (H9) cell lines, as well as human embryonic kidney (HEK293) and mammary epithelial (HBL100 and HBL100/Dox) cells used as representatives of pseudonormal cells. All cell lines were obtained from American Type Culture Collection (ATCC). RPMI-1640 and DMEM media were obtained from Gibco. Fetal bovine serum (FBS) was purchased from HyClone. Cells were cultured in RPMI-1640 or DMEM media supplemented with 10% FBS and 50 μg/mL gentamicin in a humidified incubator with 5% CO2 atmosphere. The cell growth inhibitory effects of the compounds were evaluated using the conventional MTT assay (ICN Biomedicals, Eschwege, Germany). Cells were seeded in triplicate at a cell density of 5 × 10^3/well in 96-well plates in 100 µL complete medium and preincubated for 24 h. The tested compounds were initially dissolved in DMSO. Then, the compounds at various concentrations were added to the media. The well plates were incubated for 48 h followed by addition of MTT solution (Sigma, Darmstadt, Germany) (20 μL, 5 mg/mL). The cells were incubated at 37 °C for further 3 h; then the culture medium was removed, and formazan crystals were dissolved in DMSO (70 μL). The absorbance of the resulting solutions was measured on a multi-well plate reader (Multiskan FC, Thermo scientific) at 530 nm to determine the percentage of surviving cells. The reported values of IC50 are the averages of three independent experiments (Table 2 and Table 3). Cisplatin (in the initial form of an infusion concentrate in natural saline solution) from a commercial source was used as the reference.

[2] = system: HEK293 embryonic kidney cells; assay: MTT cytotoxicity assay, HEK293; assay type: cell-based, human; details: HEK293 noncancerous cells, 48 h exposure, read-out: IC50 ± SD, HEK293
Method: as §1, §2

[3] = system: PC3 prostate adenocarcinoma cells; assay: MTT cytotoxicity assay, PC3; assay type: cell-based, human; details: 48 h exposure, read-out: IC50 ± SD, PC3
Method: as §1, §2

[4] = system: AMO1 multiple plasmacytoma cells; assay: MTT cytotoxicity assay, AMO1; assay type: cell-based, human; details: for IC50: AMO1, MTT, 48 h exposure, read-out: IC50 ± SD, AMO1
Method: as §1, §2

U251 glioblastoma cells = assay: MTT cytotoxicity assay, U251; assay type: cell-based, human; details: read-out: IC50 ± SD, U251
Method: as §1, §2

[5] = system: K562/iS9 resistant chronic myelogenous leukemia cells; assay: MTT cytotoxicity assay, K562/iS9; assay type: cell-based, human; details: read-out: IC50 ± SD, K562/iS9
Method: as §1, §2

[6] = system: K562 chronic myelogenous leukemia cells; assay: MTT cytotoxicity assay, K562; assay type: cell-based, human; details: 48 h exposure, read-out: IC50 ± SD, K562
Method: as §1, §2

[7] = system: HBL100/Dox doxorubicin-resistant mammary epithelial cells; assay: MTT cytotoxicity assay, HBL100/Dox; assay type: cell-based, human; details: for IC50: MTT, 48 h exposure, read-out: IC50 ± SD, HBL100/Dox
Method: as §1, §2

[8] = system: HBL100 mammary epithelial cells; assay: MTT cytotoxicity assay, HBL100; assay type: cell-based, human; details: read-out: IC50 ± SD, HBL100
Method: as §1, §2

MCF7 breast cancer cells = assay: MTT cytotoxicity assay, MCF7; assay type: cell-based, human; details: for IC50: MCF7, MTT, 48 h exposure, read-out: IC50 ± SD, MCF7
Method: as §1, §2

[9] = system: Scov3 ovarian adenocarcinoma cells; assay: MTT cytotoxicity assay, Scov3; assay type: cell-based, human; details: Scov3, MTT, 48 h exposure, read-out: IC50 ± SD, Scov3
Method: as §1, §2

K562 cells = assay: MTT assay with complexes preliminarily kept in DMSO–RPMI 1640, K562; assay type: cell-based, human; details: K562, kept in DMSO–RPMI 1640 (1/10 by volume) for 48 h before experiment, 72 h incubation
Method: (§3) The observed dependences correlate well with our previous findings on the lability of the phosphoryl sites in palladocycles 2a,b, 3a,b and can be rationalized in terms of their coordination behavior. […] However, the presence of an additional competitive chloride anion makes complex 2b potentially more susceptible to decoordination of the phosphoryl arm. […] At least the N,N-bidentately bound core remained intact in the mentioned media over a period of 48 h.
(§4) Figure S51. Effect of complexes 2b (a) and 3b (b) dissolved either in neat DMSO or DMSO–RPMI 1640 mixture on AMO1 and K562 cells (cell viability was defined by the conventional MTT assay according to the methodology described in the Experimental section with slight modifications: the complexes explored were preliminarily kept in neat DMSO or DMSO–RPMI 1640 mixture for 2 days before the experiments and the following incubation period […]

[10] = 31P NMR stability study in CDCl3–(CD3)2SO mixture; assay type: physicochemical; details: commensurable decomposition degree reached only in a week
Method: as §3

[11] = system: H9 acute lymphoblastic leukemia cells; assay: MTT cytotoxicity assay, H9; assay type: cell-based, human; details: 48 h exposure, read-out: IC50 ± SD, H9
Method: as §1
as §2, with “Then, the compounds at various concentrations were added to the media. The well plates were incubated for 48 h followed by addition of MTT solution (Sigma, Darmstadt, Germany) (20 μL, 5 mg/mL). The cells were incubated at 37 °C for further 3 h; then the culture medium was removed, and formazan crystals were dissolved in DMSO (70 μL).” left out, “The reported values of IC50 are the averages of three independent experiments (Table 2 and Table 3). Cisplatin (in the initial form of an infusion concentrate in natural saline solution) from a commercial source was used as the reference.” left out

AMO1 cells = assay: MTT assay with complexes preliminarily kept in DMSO–RPMI 1640, AMO1; assay type: cell-based, human; details: AMO1, kept in DMSO–RPMI 1640 (1/10 by volume) for 48 h before experiment, 72 h incubation
Method: as §3, §4

[12] = Solubility and stability in solvents (observation); assay type: physicochemical; details: for stability in DMSO: strongly coordinating media (DMSO)
Source text: To further explore the effect of lability of coordination sites on the biological activity of this type of cyclopalladated complexes, we decided to modify the second arm in the O,N,N-ligand framework, specifically the ancillary N-donor group, replacing the pyridine unit for a more rigid quinoline moiety. The reaction of [amino(phenyl)methyl]diphenylphosphine oxide hydrochloride with in situ generated quinoline-2-carboxylic acid chloride smoothly furnished functionalized amide 4, which, in turn, readily underwent direct cyclopalladation, affording Pd(II) pincer complex 5 (Scheme 4). The molecular structure of this palladocycle is presented in Figure 4, while its main geometric parameters are listed in Table S1 in the SI. Unfortunately, complex 5 appeared to be insoluble in common organic solvents and unstable in strongly coordinating media (e.g., DMSO); a possible reason for the stability issues is its highly constrained structure. Therefore, it was withdrawn from the cytotoxicity studies.
A solution of PdCl2(NCPh)2 (70 mg, 0.182 mmol) in CH2Cl2 (4 mL) was added dropwise to a solution of ligand 4 (84 mg, 0.182 mmol) and Et3N (26 μL, 0.186 mmol) in CH2Cl2 (6 mL). The reaction mixture was left under ambient conditions for 1 day and then filtered through a pad of cotton. The filtrate was evaporated to dryness. The resulting residue was washed with Et2O and purified by column chromatography on silica gel (eluent: CHCl3–EtOH (25:1)) to give 60 mg of the target pincer complex as a yellow crystalline solid. Yield: 55%. Mp: >175 °C (dec.). ^31P{^1H} NMR (161.98 MHz, CH2Cl2/D2O): δ 72.32 ppm (the ^1H and ^13C{^1H} NMR spectroscopic data for complex 5 were not obtained due to its low solubility in common organic solvents (e.g., chlorinated hydrocarbons and acetonitrile) and instability in strongly coordinating media (e.g., DMSO)). IR (KBr, ν/cm^–1): 521(w), 534(w), 561(s), 586(w), 699(m), 725(w), 766(w), 852(w), 927(vw), 998(w), 1024(m), 1042(m), 1121(m) (νP=O), 1154(w), 1341(w), 1378(br, m), 1437(m), 1461(w), 1493(w), 1516(w), 1560(w), 1595(w), 1633(s) (νC=O), 2923(vw), 3064(w). […]

Row | SMILES | IC50 ([1]; 48 h exposure) [µM] | IC50 [2] [µM] | IC50 [3] [µM] | IC50 [4] [nM] | IC50 (U251 glioblastoma cells; 48 h exposure) [µM] | IC50 ([5]; 48 h exposure) [µM] | IC50 [6] [µM] | IC50 [7] [µM] | IC50 ([8]; 48 h exposure) [µM] | IC50 (MCF7 breast cancer cells) [µM] | IC50 [9] [µM] | stability in DMSO [12] | also measured
1 | N.N.[Cl][Pt][Cl] [Cisplatin, reference compound] | 18 ± 2 | 12.5 ± 1.5 | 16 ± 3 | 3200 ± 600 | 16.5 ± 1.5 | 16 ± 2 | 15.5 ± 0.5 | 23.6 ± 3.6 | 14.6 ± 3.6 | 25 ± 4 | 21 ± 3 | – | –
2 | O=C(c1ccccn1)[N]([Pd][Cl])C(c1ccccc1)P(=O)(c1ccccc1)c1ccccc1 (stereo not drawn) [complex 3b, [κ^3-O,N,N-(L)Pd(II)Cl]] | 4 ± 2 | 12.5 ± 3.5 | 16 ± 2 | 2700 ± 500 | 43 ± 5 | 7.2 ± 1 | 6.4 ± 0.4 | 28 ± 2.6 | 17.8 ± 0.8 | 13 ± 1.5 | 40 ± 0.6 | – | cytotoxic activity after keeping in DMSO–RPMI 1640 mixture vs neat DMSO (K562 cells): comparable; stability in CDCl3–(CD3)2SO mixture [10]: quite stable; IC50 [11]: 3.2 ± 0.2 µM; cytotoxic activity after keeping in DMSO–RPMI 1640 mixture vs neat DMSO (AMO1 cells): comparable
3 | O=C(c1ccc2ccccc2n1)[N]([Pd][Cl])C(c1ccccc1)P(=O)(c1ccccc1)c1ccccc1 (stereo not drawn) [complex 5, [κ^3-O,N,N-(L)Pd(II)Cl]] | – | – | – | – | – | – | – | – | – | – | – | unstable | solubility in common organic solvents ([12]; common organic solvents): insoluble
4 | O=C(c1cccc2cccnc12)[N](CP(=O)(c1ccccc1)c1ccccc1)[Pd][Cl] [complex 7, [κ^3-O,N,N-(L)Pd(II)Cl]] | 38 ± 6 | 23 ± 3 | 52 ± 10 | – | – | – | – | – | – | 58 ± 12 | – | stable | –
5 | O=C(NCP(=O)(c1ccccc1)c1ccccc1)c1ccccn1 [ligand 1a, N-[(Diphenylphosphoryl)methyl]picolinamide] | – | – | – | – | – | – | – | – | – | – | – | – | IC50 ([1]; Homo sapiens, HCT-116, 48 h exposure): > 100 µM; IC50 ([2]; Homo sapiens): > 100 µM; IC50 ([3]; Homo sapiens): > 100 µM; percentage of live cells ([4]; AMO1, compound concentration 80.0 μM, 48 h): 41% ^3; IC50 (U251 glioblastoma cells; Homo sapiens, U-251, 48 h exposure): > 100 µM; IC50 ([5]; Homo sapiens, K562i/S9, 48 h exposure): > 80 µM; IC50 ([11]; Homo sapiens): > 80 µM; IC50 ([6]; Homo sapiens): > 80 µM; percentage of live cells ([7]; compound concentration 100.0 μM, 48 h): 35% ^3; IC50 ([8]; Homo sapiens, HBL-100, 48 h exposure): > 100 µM; percentage of live cells (MCF7 breast cancer cells; MCF7, compound concentration 100.0 μM, 48 h): 46% ^3; IC50 ([9]; Homo sapiens): > 100 µM

Source: PMC10146186, “Modulation of the Cytotoxic Properties of Pd(II) Complexes Based on Functionalized Carboxamides Featuring Labile Phosphoryl Coordination Sites” (Pharmaceutics, 2023)
